Measurements published in patent EP0102509A1, “Oxamid-acid derivatives, process for their preparation and therapeutical agents containing them” (BASF Aktiengesellschaft, priority 1982, dated 1984).

Tested on: passiven cutanen Anaphylaxie (PCA)
Experiment: Passive cutaneous anaphylaxis (PCA) in rats, oral administration
Type: in vivo, Ratte
Conditions: for ED50: read-out: Hemmung der PCA ED 50 %; for Hemmung der PCA R.W.: relative potency after oral administration, comparison compound A = 1.00
Protocol: Die antiallergische Wirkung wurde an Ratten getestet. Zur Prüfung wurde das Modell der passiven cutanen Anaphylaxie (PCA) verwendet: • Narkotisierte männliche Ratten (100 - 140 g) werden durch intradermale Injektion (rasierte Rückenhaut) von 0,1 ml eines Ovalbumin-Antiserums sensibilisiert. Nach einer Sensibilisierüngsdauer von ca. 48 h erfolgt die Behandlung (orale Applikation) mit unterschiedlichen Dosierungen (10 Tiere/Dosis) der Prüfsubstanzen. 15 bzw. 20 min nach der Behandlung wird eine Antigen/Evansblau-Mischung (10 mg/kg Ovalbumin in 2%iger Evansblau-Lösung) den Versuchstieren intravenös injiziert. 30 min später werden die Tiere getötet, die Rückenhaut abgezogen und auf der inneren Oberfläche der Durchmesser der kreisförmigen Blaufärbung gemessen. Die Größe der Farbflecke unbehandelter Kontrolltiere ist standardisierbar. Antiallergisch wirksame Substanzen verkleinern dosisabhängig den Durchmesser der Farbflecke. Als ED-50 % wird die Dosis angegeben, die im Vergleich zu medikamentös unbehandelten Kontrolltieren den Durchmesser der Farbflecke um 50 % herabsetzt.

[1] = oral administration, rat, dose that reduces the diameter of the dye spots by 50 % vs untreated controls

Molecule: CCOCCOC(=O)C(=O)Nc1cccc(NC(=O)C(=O)OCCOCC)c1 [Beispiel 2, N,N'-(1,3-Phenylen)-dioxamidsäure-2-ethoxyethylester]
- ED50 [1]: 2.77 mg/kg
- Hemmung der PCA R.W.: 3.10
- Hemmung der PCA R.W. (listed as Bsp. 2): 3,10

Molecule: O=C(O)c1cc(=O)c2c(OCC(O)COc3cccc4oc(C(=O)O)cc(=O)c34)cccc2o1 [Cromolyne, reference compound]
- Antiallergische Wirkung (bis 100 mg/kg p.o., rat PCA): unwirksam
- ED50 [1]: > 100 mg/kg

Molecule: N,N'-(1,3-Phenylen)-dioxamidsäure-2-butoxyethylester [Beispiel 3]
- Hemmung der PCA ED 50 % [1]: ca. 4.64 mg/kg
- Hemmung der PCA R.W.: ca. 1.85
- Hemmung der PCA R.W. (listed as Bsp. 3): 1,85
